In patent US12630540B2, “(4-(6-((2-octahydrocyclopenta[c]pyrrol-5-yl)amino)pyridazin-3-yl)phenyl)(imino)(methyl)-LAMBDA6-sulfanone derivatives and similar compounds as muscarinic acetylcholine receptor M4 antagonists for the treatment of neurodegenerative disorders” (Vanderbilt University, priority 2021, dated 2026):

Target: T1, Human M4 (Homo sapiens, UniProt P08173)
T1 construct: expressed in transfected cells; host or cells: CHO-K1 (ATCC), stably expressing M4 and Gqi5
T1 sequence (P08173 1-479): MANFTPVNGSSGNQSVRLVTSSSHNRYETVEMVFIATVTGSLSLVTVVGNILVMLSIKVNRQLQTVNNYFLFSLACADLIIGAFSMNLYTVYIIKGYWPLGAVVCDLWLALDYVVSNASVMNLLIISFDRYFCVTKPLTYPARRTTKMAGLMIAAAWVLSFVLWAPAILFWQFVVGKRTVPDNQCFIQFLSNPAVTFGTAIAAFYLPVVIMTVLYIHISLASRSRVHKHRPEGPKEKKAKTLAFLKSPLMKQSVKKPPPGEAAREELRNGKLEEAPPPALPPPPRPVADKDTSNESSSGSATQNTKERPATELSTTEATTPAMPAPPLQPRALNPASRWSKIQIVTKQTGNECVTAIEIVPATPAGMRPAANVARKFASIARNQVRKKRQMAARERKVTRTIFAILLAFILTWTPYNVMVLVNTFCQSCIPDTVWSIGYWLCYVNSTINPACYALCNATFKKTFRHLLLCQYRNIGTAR
Assay: mAChR M4 cell-based functional assay (calcium flux, antagonism of EC80 acetylcholine response)
Conditions: M4/Gqi5 CHO-K1 cells; for Human M4 Emin: % ACh maximum at 30 μM; for IC50: decrease of the response elicited by an EC80 concentration of acetylcholine
Description: Human or rat M4 cDNA, along with the chimeric G protein Gqi5, were transfected into Chinese hamster ovary (CHO-K1) cells purchased from the American Type Culture Collection using Lipofectamine2000. M4/Gqr5/CHO cells were grown in Ham's F-12 medium containing 10% heat-inactivated fetal bovine serum (FBS), 20 mM HEPES, 500 μg/mL G418 sulfate, and 200 μg/mL Hygromycin B.
For high throughput measurement of agonist-evoked increases in intracellular calcium, CHO-K1 cells stably expressing muscarinic receptors were plated in growth medium lacking G418 and hygromycin at 15,000 cells/20 μL/well in Greiner 384-well black-walled, tissue culture (TC)-treated, clear-bottom plates (VWR). Cells were incubated overnight at 37° C. and 5% CO2. The next day, cells were washed using an ELX 405 (BioTek) with assay buffer; the final volume was then aspirated to 20 μL. Next, 20 μL of a 2.3 μM stock of Fluo-4/acetoxymethyl ester (Invitrogen, Carlsbad, CA), prepared as a 2.3 mM stock in DMSO and mixed in a 1:1 ratio with 10% (w/v) Pluronic F-127 and diluted in assay buffer, was added to the wells and the cell plates were incubated for 50 min at 37° C. and 5% CO2. Dye was removed by washing with the ELX 405 and the final volume was aspirated to 20 μL. Compound master plates were formatted in a 10 point concentration-response curve (CRC) format (1:3 dilutions) in 100% DMSO with a starting concentration of 10 or 1 mM using a BRAVO liquid handler (Agilent). Test compound CRCs were then transferred to daughter plates (240 nL) using the Echo acoustic plate reformatter (Labcyte, Sunnyvale, CA) and then diluted into assay buffer (40 μL) to a 2× stock using a Thermo Fisher Combi (Thermo Fisher Scientific, Waltham, MA).
Calcium flux was measured using the Functional Drug Screening System (FDSS) 6000 or 7000 (Hamamatsu Corporation, Tokyo, Japan) as an increase in the fluorescent static ratio. Compounds were applied to cells (20 μL, 2×) using the automated system of the FDSS at 2 seconds into the protocol and the data were collected at 1 Hz. At 143 s, 10 μL of an EC20 concentration of the muscarinic receptor agonist acetylcholine was added (5×), followed by the addition of 12 μL of an EC80 concentration of acetylcholine at the 268 s time point (5×). Agonist activity was analyzed as a concentration-dependent increase in calcium mobilization upon compound addition. Positive allosteric modulator activity was analyzed as a concentration-dependent increase in the EC20 acetylcholine response. Antagonist activity was analyzed as a concentration-dependent decrease in the EC80 acetylcholine response; for the purposes of the tables herein, an IC50 (inhibitory concentration 50) was calculated as a concentration-dependent decrease of the response elicited by an EC80 concentration of acetylcholine. Concentration-response curves were generated using a four-parameter logistical equation in XLFit curve fitting software (IDBS, Bridgewater, NJ) for Excel (Microsoft, Redmond, WA) or Prism (GraphPad Software, Inc., San Diego, CA) or the Dotmatics software platform (Dotmatics, Bishop's Stortford, UK).
Compounds were synthesized as described above. Activity (IC50 and Emin) was determined in the mAChR M4 cell-based functional assay as described above and the data are shown in Table 2.

Row | Human M4 Emin [%] | IC50 [nM] | Structure (SMILES)
1 | 3 | 86.2 | [2H]C([2H])(C1CC(C)(C)OC(C)(C)C1)N1C[C@H]2C[C@H](Nc3ccc(-c4cc(F)c(S(C)(=N)=O)cc4F)nn3)C[C@H]2C1 (stereo partly drawn) [compound 11, (2,5-difluoro-4-(6-(((3aR,5s,6aS)-2-((2,2,6,6-tetramethyltetrahydro-2H-pyran-4-yl)methyl-d2)octahydrocyclopenta[c]pyrrol-5-yl)amino)pyridazin-3-yl)phenyl)(imino)(methyl)-λ^6-sulfanone]
2 | 3 | 188 | [2H]C([2H])(C1CCOCC1)N1C[C@H]2C[C@H](Nc3ccc(-c4ccc(S(C)(=N)=O)c(F)c4)nn3)C[C@H]2C1 (stereo partly drawn) [compound 6, (2-fluoro-4-(6-(((3aR,5s,6aS)-2-((tetrahydro-2H-pyran-4-yl)methyl-d2)octahydrocyclopenta[c]pyrrol-5-yl)amino)pyridazin-3-yl)phenyl)(imino)(methyl)-λ^6-sulfanone]
3 | 3 | 18.4 | CS(=N)(=O)c1cc(F)c(-c2ccc(N[C@H]3C[C@@H]4CN(CCC5CCOCC5)C[C@@H]4C3)nn2)cc1F (stereo partly drawn) [compound 9, (2,5-difluoro-4-(6-(((3aR,5s,6aS)-2-(2-(tetrahydro-2H-pyran-4-yl)ethyl)octahydrocyclopenta[c]pyrrol-5-yl)amino)pyridazin-3-yl)phenyl)(imino)(methyl)-λ^6-sulfanone]
4 | 3 | 8.6 | [2H]C([2H])(C1CCOCC1)N1C[C@H]2C[C@H](Nc3ccc(-c4ccc(S(C)(=N)=O)c(C(F)(F)F)c4)nn3)C[C@H]2C1 (stereo partly drawn) [compound 13, imino(methyl)(4-(6-(((3aR,5s,6aS)-2-((tetrahydro-2H-pyran-4-yl)methyl-d2)octahydrocyclopenta[c]pyrrol-5-yl)amino)pyridazin-3-yl)-2-(trifluoromethyl)phenyl)-λ^6-sulfanone]
5 | 3 | 75.4 | [2H]C([2H])(C1CCOCC1)N1C[C@H]2C[C@H](Nc3ccc(-c4ccc(S(C)(=N)=O)cc4F)nn3)C[C@H]2C1 (stereo partly drawn) [compound 5, (3-fluoro-4-(6-(((3aR,5s,6aS)-2-((tetrahydro-2H-pyran-4-yl)methyl-d2)octahydrocyclopenta[c]pyrrol-5-yl)amino)pyridazin-3-yl)phenyl)(imino)(methyl)-λ^6-sulfanone]
6 | 3 | 40 | CS(=N)(=O)c1cc(F)c(-c2ccc(N[C@H]3C[C@@H]4CN(CC5CCOCC5)C[C@@H]4C3)nn2)cc1F (stereo partly drawn) [compound 7, (2,5-difluoro-4-(6-(((3aR,5s,6aS)-2-((tetrahydro-2H-pyran-4-yl)methyl)octahydrocyclopenta[c]pyrrol-5-yl)amino)pyridazin-3-yl)phenyl)(imino)(methyl)-λ^6-sulfanone]
7 | 2 | 39.6 | [2H]C([2H])(C1CCOCC1)N1C[C@H]2C[C@H](Nc3ccc(-c4ccc(S(C)(=N)=O)cc4)nn3)C[C@H]2C1 (stereo partly drawn) [compound 2, imino(methyl)(4-(6-(((3aR,5s,6aS)-2-((tetrahydro-2H-pyran-4-yl)methyl-d2)octahydrocyclopenta[c]pyrrol-5-yl)amino)pyridazin-3-yl)phenyl)-λ^6-sulfanone]
8 | 4 | 13.4 | [2H]C([2H])(C1CCOCC1)N1C[C@H]2C[C@H](Nc3ccc(-c4cc(F)c(S(C)(=N)=O)cc4F)nn3)C[C@H]2C1 (stereo partly drawn) [compound 1, (2,5-difluoro-4-(6-(((3aR,5s,6aS)-2-((tetrahydro-2H-pyran-4-yl)methyl-d2)octahydrocyclopenta[c]pyrrol-5-yl)amino)pyridazin-3-yl)phenyl)(imino)(methyl)-λ^6-sulfanone]
9 | 2 | 1.8 | CS(=N)(=O)c1cc(F)c(-c2ccc(N[C@H]3C[C@@H]4CN(CC5CCCCC5)C[C@@H]4C3)nn2)cc1F (stereo partly drawn) [compound 10, (4-(6-(((3aR,5s,6aS)-2-(cyclohexylmethyl)octahydrocyclopenta[c]pyrrol-5-yl)amino)pyridazin-3-yl)-2,5-difluorophenyl)(imino)(methyl)-λ^6-sulfanone]
10 | 6 | 584 | [2H]C([2H])(C1CCOCC1)N1C[C@H]2C[C@H](Nc3ccc(-c4cc(F)c(S(C)(=O)=NC(C)=O)cc4F)nn3)C[C@H]2C1 (stereo partly drawn) [compound 4, N-((2,5-difluoro-4-(6-(((3aR,5s,6aS)-2-((tetrahydro-2H-pyran-4-yl)methyl-d2)octahydrocyclopenta[c]pyrrol-5-yl)amino)pyridazin-3-yl)phenyl)(methyl)(oxo)-λ^6-sulfaneylidene)acetamide]
11 | 3 | 18.5 | [2H]C([2H])([2H])N=S(C)(=O)c1cc(F)c(-c2ccc(N[C@H]3C[C@@H]4CN(C([2H])([2H])C5CCOCC5)C[C@@H]4C3)nn2)cc1F (stereo partly drawn) [compound 3, (2,5-difluoro-4-(6-(((3aR,5s,6aS)-2-((tetrahydro-2H-pyran-4-yl)methyl-d2)octahydrocyclopenta[c]pyrrol-5-yl)amino)pyridazin-3-yl)phenyl)(methyl)((methyl-d3)imino)-λ^6-sulfanone]
12 | 2 | 43.4 | [2H]C([2H])(C1CCOCC1)N1C[C@H]2C[C@H](Nc3ccc(-c4ccc(S(C)(=O)=NC(F)(F)F)cc4)nn3)C[C@H]2C1 (stereo partly drawn) [compound 12, methyl(4-(6-(((3aR,5s,6aS)-2-((tetrahydro-2H-pyran-4-yl)methyl-d2)octahydrocyclopenta[c]pyrrol-5-yl)amino)pyridazin-3-yl)phenyl)((trifluoromethyl)imino)-λ^6-sulfanone]
13 | 7 | 560 | CS(=N)(=O)c1cc(F)c(-c2ccc(N[C@H]3C[C@@H]4CN(Cc5ccccn5)C[C@@H]4C3)nn2)cc1F (stereo partly drawn) [compound 8, (2,5-difluoro-4-(6-(((3aR,5s,6aS)-2-(pyridin-2-ylmethyl)octahydrocyclopenta[c]pyrrol-5-yl)amino)pyridazin-3-yl)phenyl)(imino)(methyl)-λ^6-sulfanone]
